Measurements reported in article PMC10282079, “Design, synthesis, in vitro anti-α-glucosidase evaluations, and computational studies of new phthalimide-phenoxy-1,2,3-triazole-N-phenyl (or benzyl) acetamides as potential anti-diabetic agents” (Scientific Reports, 2023).

Assays:
yeast α-glucosidase = biological target: T1, yeast α-glucosidase (Saccharomyces cerevisiae, UniProt P53341); test: biochemical; format: biochemical; details: for IC50: yeast α-glucosidase, mean ± SD of three independent experiments; for α-glucosidase inhibitory activity in words: SAR discussion of Table 1
T1 construct: purchased Sigma-Aldrich
Method: The in vitro enzymatic inhibitory activity of phthalimide-phenoxy-1,2,3-triazole-N-phenyl (or benzyl) acetamide 11a–n was evaluated against yeast α-glucosidase.
The change in absorbance was measured at 405 nm using by a standard spectrophotometer (Gen5, Power wave xs2, BioTek, America).

α-glucosidase = biological target: T2, α-glucosidase (Saccharomyces cerevisiae, UniProt P53341); test: Kinetic study of α-glucosidase inhibition (Lineweaver–Burk); format: biochemical
T2 construct: purchased Sigma-Aldrich
Method: For this purpose, the reaction rates in the presence of different concentrations of compound 11j were measured in various concentrations of substrate (p-nitrophenyl-a-D-glucopyranoside). Graphs of different concentrations of inhibitor were drawn by the Lineweaver–Burk plot (Fig. 2a). […] The Ki value was calculated directly by plotting the slope of each line in the Lineweaver–Burk plots into the different concentrations of compound 11j (Fig. 2b).
The 20 µL of α-glucosidase solution (1 U/mL) was incubated with different concentrations of compound 11j (0, 12, 23 and 46 µM) for 15 min at 30 °C. The reaction was then started by adding different concentrations of substrate (1–10 mM) and change in absorbance was measured for 20 min at 405 nm using by spectrophotometer (Gen5, Power wave xs2, BioTek, America).

T1 sequence (P53341 whole entry): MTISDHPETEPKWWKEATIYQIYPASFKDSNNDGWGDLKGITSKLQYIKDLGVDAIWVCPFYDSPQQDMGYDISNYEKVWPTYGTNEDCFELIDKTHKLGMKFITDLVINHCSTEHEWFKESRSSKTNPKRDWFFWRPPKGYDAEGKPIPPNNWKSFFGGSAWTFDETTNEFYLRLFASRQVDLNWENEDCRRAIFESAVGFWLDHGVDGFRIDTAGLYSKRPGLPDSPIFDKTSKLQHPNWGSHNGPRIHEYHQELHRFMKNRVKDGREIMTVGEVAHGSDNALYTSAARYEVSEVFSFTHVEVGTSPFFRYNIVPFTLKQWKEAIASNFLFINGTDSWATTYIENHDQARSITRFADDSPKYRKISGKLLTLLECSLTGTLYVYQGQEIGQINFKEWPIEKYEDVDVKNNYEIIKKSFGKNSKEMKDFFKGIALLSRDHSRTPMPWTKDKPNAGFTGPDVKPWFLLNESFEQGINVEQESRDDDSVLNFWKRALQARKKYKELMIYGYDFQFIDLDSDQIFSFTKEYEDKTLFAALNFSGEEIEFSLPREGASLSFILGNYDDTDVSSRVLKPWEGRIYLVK
T2 sequence (P53341 whole entry): as above

SMILES | IC50 (yeast α-glucosidase) | melting point | Fold less potent than compound 11a (yeast α-glucosidase; ratio of IC50 values) | α-glucosidase inhibitory activity in words (yeast α-glucosidase) | Inhibition mode (α-glucosidase; Lineweaver–Burk plot) | Ki (α-glucosidase; secondary re-plot of Lineweaver–Burk slopes, substrate p-nitrophenyl-a-D-glucopyranoside)
Cc1cccc(NC(=O)Cn2cc(COc3ccc(N4C(=O)c5ccccc5C4=O)cc3)nn2)c1C [Compound 11b, N-(2,3-dimethylphenyl)-2-(4-((4-(1,3-dioxoisoindolin-2-yl)phenoxy)methyl)-1H-1,2,3-triazol-1-yl)acetamide] | 366.1 ± 0.86 µM | 206 to 208 °C | 1.8 fold | – | – | –
Cc1cccc(C)c1NC(=O)Cn1cc(COc2ccc(N3C(=O)c4ccccc4C3=O)cc2)nn1 [Compound 11c, N-(2,6-dimethylphenyl)-2-(4-((4-(1,3-dioxoisoindolin-2-yl)phenoxy)methyl)-1H-1,2,3-triazol-1-yl)acetamide] | – | 209 to 211 °C | – | inactive | – | –
CCc1ccc(NC(=O)Cn2cc(COc3ccc(N4C(=O)c5ccccc5C4=O)cc3)nn2)cc1 [Compound 11d, 2-(4-((4-(1,3-dioxoisoindolin-2-yl)phenoxy)methyl)-1H-1,2,3-triazol-1-yl)-N-(4-ethylphenyl)acetamide] | 491.68 ± 0.11 µM | 202 to 204 °C | – | significant decrease in the inhibitory activity | – | –
O=C(Cn1cc(COc2ccc(N3C(=O)c4ccccc4C3=O)cc2)nn1)Nc1cccc(Cl)c1Cl [Compound 11g, N-(2,3-dichlorophenyl)-2-(4-((4-(1,3-dioxoisoindolin-2-yl)phenoxy)methyl)-1H-1,2,3-triazol-1-yl)acetamide] | 239.1 ± 0.41 µM | 203 to 205 °C | – | moderate anti-α-glucisidase activity | – | –
O=C(Cn1cc(COc2ccc(N3C(=O)c4ccccc4C3=O)cc2)nn1)Nc1c(Cl)cccc1Cl [Compound 11i, N-(2,6-dichlorophenyl)-2-(4-((4-(1,3-dioxoisoindolin-2-yl)phenoxy)methyl)-1H-1,2,3-triazol-1-yl)acetamide] | 46.2 ± 0.89 µM | 202 to 204 °C | – | – | – | –
O=C(Cn1cc(COc2ccc(N3C(=O)c4ccccc4C3=O)cc2)nn1)Nc1ccc(Br)cc1 [Compound 11j, N-(4-bromophenyl)-2-(4-((4-(1,3-dioxoisoindolin-2-yl)phenoxy)methyl)-1H-1,2,3-triazol-1-yl)acetamide] | 45.26 ± 0.03 µM | 237 to 239 °C | – | moderate anti-α-glucisidase activity | competitive inhibitor | 50.4 µM
O=C(Cn1cc(COc2ccc(N3C(=O)c4ccccc4C3=O)cc2)nn1)Nc1ccc([N+](=O)[O-])cc1 [Compound 11k, 2-(4-((4-(1,3-dioxoisoindolin-2-yl)phenoxy)methyl)-1H-1,2,3-triazol-1-yl)-N-(4-nitrophenyl)acetamide] | > 750 µM | 260 to 262 °C | – | complete loss of inhibitory activity | – | –
Cc1cc([N+](=O)[O-])ccc1NC(=O)Cn1cc(COc2ccc(N3C(=O)c4ccccc4C3=O)cc2)nn1 [Compound 11l, 2-(4-((4-(1,3-dioxoisoindolin-2-yl)phenoxy)methyl)-1H-1,2,3-triazol-1-yl)-N-(2-methyl-4-nitrophenyl)acetamide] | 273.3 ± 0.28 µM | 228 to 230 °C | – | – | – | –
O=C(Cn1cc(COc2ccc(N3C(=O)c4ccccc4C3=O)cc2)nn1)NCc1ccccc1 [Compound 11m, N-benzyl-2-(4-((4-(1,3-dioxoisoindolin-2-yl)phenoxy)methyl)-1H-1,2,3-triazol-1-yl)acetamide] | > 750 µM | 201 to 203 °C | – | inactive | – | –
O=C(Cn1cc(COc2ccc(N3C(=O)c4ccccc4C3=O)cc2)nn1)NCc1ccc(F)cc1 [Compound 11n, 2-(4-((4-(1,3-dioxoisoindolin-2-yl)phenoxy)methyl)-1H-1,2,3-triazol-1-yl)-N-(4-fluorobenzyl)acetamide] | 685.99 ± 0.32 µM | 204 to 206 °C | – | – | – | –

Continued, in another order:

IC50 (yeast α-glucosidase) | SMILES | melting point | Fold less potent than compound 11a (yeast α-glucosidase; ratio of IC50 values) | α-glucosidase inhibitory activity in words (yeast α-glucosidase) | Inhibition mode (α-glucosidase; Lineweaver–Burk plot) | Ki (α-glucosidase; secondary re-plot of Lineweaver–Burk slopes, substrate p-nitrophenyl-a-D-glucopyranoside)
203.8 ± 0.32 µM | O=C(Cn1cc(COc2ccc(N3C(=O)c4ccccc4C3=O)cc2)nn1)Nc1ccccc1 [Compound 11a, 2-(4-((4-(1,3-dioxoisoindolin-2-yl)phenoxy)methyl)-1H-1,2,3-triazol-1-yl)-N-phenylacetamide] | 218 to 220 °C | – | – | – | –
188.3 ± 0.27 µM | O=C(Cn1cc(COc2ccc(N3C(=O)c4ccccc4C3=O)cc2)nn1)Nc1cccc(F)c1 [Compound 11e, 2-(4-((4-(1,3-dioxoisoindolin-2-yl)phenoxy)methyl)-1H-1,2,3-triazol-1-yl)-N-(3-fluorophenyl)acetamide] | 204 to 206 °C | – | – | – | –
112.16 ± 0.03 µM | O=C(Cn1cc(COc2ccc(N3C(=O)c4ccccc4C3=O)cc2)nn1)Nc1cccc(Cl)c1 [Compound 11f, N-(3-chlorophenyl)-2-(4-((4-(1,3-dioxoisoindolin-2-yl)phenoxy)methyl)-1H-1,2,3-triazol-1-yl)acetamide] | 210 to 212 °C | – | – | – | –
284 ± 0.41 µM | O=C(Cn1cc(COc2ccc(N3C(=O)c4ccccc4C3=O)cc2)nn1)Nc1ccc(Cl)cc1Cl [Compound 11h, N-(2,4-dichlorophenyl)-2-(4-((4-(1,3-dioxoisoindolin-2-yl)phenoxy)methyl)-1H-1,2,3-triazol-1-yl)acetamide] | 232 to 234 °C | – | – | – | –
